Measurements as given in US20210395312A1, “QUANTUM CONFINED PEPTIDE ASSEMBLIES AND USES THEREOF” (Ramot at Tel-Aviv University Ltd., priority 2019, published 2021).
“And” between values parts separate entries of the source, which are not always exact repeats. Equal entries are not always repeated.

Assays:
Type in all cases: physicochemical
[1] = Fluorescence photobleaching; settings: continuous irradiation for 600 seconds
Method: The fluorescence emission data was collected at 80 points per second for 10 minutes. The excitation and emission slit widths were each set at 5 nm. At least three measurements were performed and averaged for accuracy.

[2] = Fluorescence photostability
Method: Fluorescence photostability: Fluorescence emission spectra were measured at different time points (1 day, 7 days and 14 days). The excitation and emission slit widths were each set at 5 nm. Three measurements were performed and averaged for accuracy.

[3] = Fluorescence characterization (excitation/emission) of self-assemblies; settings: for fluorescent emission / Emission (λEm) / Excitation (λEx): MeOH; for fluorescent emission: excited at 370 nm; for Emission (λEm): maximal emission; for Excitation (λEx): maximal excitation
Method: UV-Visible fluorescence characterization: 600 μL sample solution was pipetted into a 1.0 cm path-length quartz cuvette, and the spectrum was collected using a FluoroMax-4 Spectrofluorometer (Horiba Jobin Yvon, Kyoto, Japan) at ambient temperature. For molecular fluorescence of some experiments, the emission wavelength was set at 350 nm with a slit of 3 nm, and the excitation wavelength was set at 200-330 nm with a slit of 3 nm. For self-assembly fluorescence, the excitation wavelength was set at 370 nm with a slit of 3 nm, and the emission wavelength was set at 380-700 nm with a slit of 3 nm. For excitation-dependent maximal emission evolution experiment, the excitation wavelengths were set at 300-450 nm with a slit of 3 nm, and the emission wavelengths were set at 380-600 nm with a slit of 3 nm. According to the samples, anhydrous MeOH or MeOH solution of ZnCl2 (CuCl2) was used as background and subtracted. At least five measurements were performed and averaged for accuracy. Emission and excitation wavelengths, slit dimensions and background solutions were adjusted per the measured sample and are as indicated below. […]
(§1) Fluorescence spectroscopy and quantum yield (QY) measurement: 600 μL sample solution was pipetted into a 1.0 cm path-length quartz cuvette, and the spectrum was collected using a FluoroMax-4 Spectrofluorometer (Horiba Jobin Yvon, Kyoto, Japan) at ambient temperature. The excitation and emission wavelengths were set at 300-500 nm and 400-650 nm, respectively, with a slit of 2 nm. Absolute fluorescence QY measurements were performed using Quanta-Phi integrating sphere connected to Fluoromex-4.

[4] = Quantum yield (QY) measurement; settings: MeOH; excitation set at 350 nm if maximal excitation less than 350 nm
Method: Quantum yield (QY) measurement: 5 mL sample solution was pipetted into a 1.0 cm path-length quartz cuvette with a tube (Hellma, Müllheim, Germany), and the absolute quantum yield was measured on an absolute PL quantum yield spectrometer C11347 (Hamamatsu Photonics, Shizuoka, Japan) at ambient temperature. The relevant blanks, namely anhydrous MeOH, MeOH solutions of ZnCl2 (CuCl2), or DMSO solution of ZnCl2, were used as background and subtracted. At least five measurements were performed and averaged for accuracy.
as §1

[5] = Fluorescent decay measurement (lifetime); settings: MeOH; for Lifetime (τ): at maximal excitation and emission
Method: Fluorescent decay measurement (lifetime): 600 μL sample solution was pipetted into a 1.0 cm path-length quartz cuvette, and the spectrum was collected using a FluoroMax-4 Spectrofluorometer (Horiba Jobin Yvon, Kyoto, Japan) equipped with a NanoLED laser excitation source at ambient temperature. The wavelength was set as the maximum excitation and emission of the samples, and a LUDOX sample (silica beads, 2 μm) was used as the prompt. The lifetime was determined by fitting the fluorescent decay data from the DAS6 Analysis software (Horiba Jobin Yvon, Kyoto, Japan). Three measurements were performed and averaged for accuracy.

[6] = Morphology and size of self-assemblies (AFM, DLS, TEM); settings: self-assemblies in MeOH
Method: Dynamic light scattering (DLS): 850 μL of the sample solution was introduced into a DTS1070 folded capillary cell (Malvern, Worcestershire, U.K.), and the size was measured using a Zetasizer Nano ZS analyzer (Malvern Instruments, Malvern, UK) at 25.0° C. and a backscatter detector (173°). Three measurements were performed and averaged for accuracy.
Atomic force microscopy (AFM): 4 μL of sample solution was dropped onto a freshly cleaved mica surface and let it dry. The mica was then rinsed with water and purged dried gently with nitrogen. A topographic image was recorded under a NanoWizard 3 BioScience AFM (JPK, Berlin, Germany) in the tapping mode at ambient temperature, with 512×512 pixel resolution and a scanning speed of 1.0 Hz.
Transmission electron microscopy (TEM): A carbon-coated copper grid was placed on a 10 μL cyclo-dipeptide droplet for 1 minute and then blotted. Next, the washed grid was placed on a 10 μL droplet containing 4% (w/v) uranyl acetate solution for 1 min and then blotted. Samples were examined using Tecnai G2 Spirit TEM (FEI) at 80 kV.
Atomic force microscopy (AFM): 5 μL of sample solution was dropped onto a freshly cleaved mica surface and dried by N2 purge (99.99%). The mica was then rinsed with water and gently purge dried with nitrogen. A topographic image was recorded under a Dimension icon AFM (Bruker) in the tapping mode at ambient temperature, with a 512×512-pixel resolution and a scanning speed of 1.0 Hz. Nanoscope Analysis software was used for data collection and analysis.
For cyclo-dipeptide-Zn structures, aliquots (10 μL) of cyclo-dipeptide-Zn were added into a glow discharge copper grid (400 mesh) coated with a thin carbon film for 2 minutes. Excess solution was then removed, and the grid was washed three times with deionized water. TEM images were viewed using a FEI Tecnai F20 electron microscope operating at 80 kV.

[7] = emission band 425, excitation 340 nm
[8] = emission band 520, excitation 420 nm
[9] = emission band 380 (strong), excitation 320 nm
[10] = emission band 465 (weak), excitation 370 nm

Row | Molecule | Structures [6] | Emission (λEm) [3] | Excitation (λEx) [3] [nm] | Lifetime (τ) [5] [ns] | further results
1 | CC1(C)C(/C=C/C=C/C=C/C=C2\N(CCCCS(=O)(=O)O)c3ccc4ccccc4c3C2(C)C)=[N+](CCCCS(=O)(=O)[O-])c2ccc3ccccc3c21 [ICG, indocyanine green] | – | – | – | – | photoluminescence after continuous irradiation (photobleaching) [1]: significant fluorescence decay; fluorescence after exposure to natural light (photostability) ([2]; after 1 day): lost all fluorescence
2 | cyanine 5.5 [Cy5.5] | – | – | – | – | photoluminescence after continuous irradiation (photobleaching) [1]: significant fluorescence decay; fluorescence lost (photostability) ([2]; after 1 week): 20%
3 | cyclo-dihistidine [cyclo-HH] | nanofibers | – | – | – | fluorescent emission [3]: 430 nm; Emission (λEm) [3, 7]: 425 nm; Emission (λEm) [3, 8]: 520 nm; Excitation (λEx) [3, 7]: 340 nm; Excitation (λEx) [3, 8]: 420 nm; QY [4]: 3%; Lifetime (τ) [5, 7]: 4.89 ± 0.02 ns; Lifetime (τ) [5, 8]: 6.48 ± 0.04 ns
4 | cyclo-dityrosine [cyclo-YY] | platelets | no detectable emissions | – | – | emission ([3]; DMSO, Ex 450 nm (cyclo-FF), Ex 480 nm (cyclo-YY)): 570 nm
5 | histidine-tyrosine cyclic dipeptide [cyclo-HY] | nanofibers | 390 nm | 310 | 0.003 ± 0.034 | –
6 | phenylalanine-histidine cyclic dipeptide [cyclo-HF] | nanofibers | 410 nm | 340 | 3.29 ± 0.03 | –
7 | phenylalanine-tyrosine cyclic dipeptide [cyclo-FY] | nanofibers | 430 nm | 350 | 0.022 ± 0.003 | QY [4]: 3%
8 | tryptophan-histidine cyclic dipeptide [cyclo-WH] | nanofibers | – | – | – | Emission (λEm) [3, 9]: 380 (strong) nm; Emission (λEm) [3, 10]: 465 (weak) nm; Excitation (λEx) [3, 9]: 320 nm; Excitation (λEx) [3, 10]: 370 nm
9 | tryptophan-tryptophan cyclic dipeptide [cyclo-WW] | nanospheres | – | 370 | 5.45 ± 0.03 | fluorescent emission [3]: 425 nm and 520 nm; Emission (λEm) ([3]; emission band 440 (strong), excitation 370 nm): 440 (strong) nm; fluorescence lifetime ([5]; excitation 370 nm): 5.6 ns
10 | tyrosine-tryptophan cyclic dipeptide [cyclo-WY] | nanofibers | 400 nm | 320 | 0.232 ± 0.004 | –
